One series has as its target T1, GST-PXRLBD (Homo sapiens, UniProt O75469).
T1 construct: GST (N)
T1 sequence (O75469 146-433 limits assumed): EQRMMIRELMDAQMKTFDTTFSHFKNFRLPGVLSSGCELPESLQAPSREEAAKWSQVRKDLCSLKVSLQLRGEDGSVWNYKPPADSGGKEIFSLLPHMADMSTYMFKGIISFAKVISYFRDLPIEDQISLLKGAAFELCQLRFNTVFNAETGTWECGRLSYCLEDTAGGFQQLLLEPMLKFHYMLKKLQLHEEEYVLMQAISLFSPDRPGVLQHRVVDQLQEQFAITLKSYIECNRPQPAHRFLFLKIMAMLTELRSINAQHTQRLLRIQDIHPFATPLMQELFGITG
Description: Interaction of BODIPY Fl-vindoline with GST-PXRLBD, Kd from specific binding curve. Particulars: buffer 50 mM Tris, 50 mM KCl, 1 mM CHAPS, 0.1 mg/mL BSA, 0.05 mM DTT, pH 7.5. The method, then: Assay was performed using a buffer solution containing 50 mM Tris, 50 mM KCl, 1 mM CHAPS, 0.1 mg/mL BSA, and 0.05 mM DTT (pH=7.5).

Series [1] has as its target T2, hPXR (Homo sapiens, UniProt O75469).
T2 construct: literature Invitrogen
T2 sequence (O75469 1-434): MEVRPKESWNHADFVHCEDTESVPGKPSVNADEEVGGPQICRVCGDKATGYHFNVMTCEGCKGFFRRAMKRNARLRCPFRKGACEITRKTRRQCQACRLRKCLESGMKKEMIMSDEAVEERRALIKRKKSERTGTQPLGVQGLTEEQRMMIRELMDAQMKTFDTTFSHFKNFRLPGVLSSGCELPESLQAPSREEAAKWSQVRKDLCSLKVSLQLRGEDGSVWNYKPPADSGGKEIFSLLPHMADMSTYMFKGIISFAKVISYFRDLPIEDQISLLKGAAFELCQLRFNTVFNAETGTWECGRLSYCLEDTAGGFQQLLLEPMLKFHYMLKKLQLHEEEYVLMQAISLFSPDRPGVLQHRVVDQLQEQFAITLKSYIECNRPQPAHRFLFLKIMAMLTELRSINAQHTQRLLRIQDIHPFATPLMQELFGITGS
Description: Invitrogen hPXR TR-FRET binding kit, Fluormone PXR (SXR) Green as probe (published reports). Particulars: calculated from published data by equation 2.

Series [2] can be described thus: Solubility of test compound in the TR-FRET assay. The note with it: 100 μM. (Time-resolved FRET reads energy transfer from a long-lived donor to a nearby acceptor.)
Series [3] has as its target T2, hPXR. The note with it: cited from earlier work; for Activity (Fluormone PXR (SXR) Green as Probe), % at single concentration: 1000 μM, published report (Lau et al.).

Marks after values point to notes of the source that are not given here.

Turning to `CC[C@]12C=CCN3CC[C@@]4(c5ccc(OC)cc5N(C)[C@H]4[C@@](O)(C(=O)OC)[C@@H]1OC(=O)CCC1=[N+]4C(C=C1)Cc1c(C)cc(C)n1[B-]4(F)F)[C@@H]32` (stereo partly drawn) [BODIPY Fl-vindoline, BODIPY FL vindoline], on GST-PXRLBD, the Kd stood at 256 nM.
In the case of `Clc1ccccc1C(c1ccccc1)(c1ccccc1)n1ccnc1` [Clotrimazole, clotrimazole], the Ki at hPXR [1] was 1000 nM. The “Solubility in the assay” value in series [2] was “incomplete solubility”. Further, the IC50 at hPXR [3] (values from published reports, read-out: IC50 (Fluormone PXR (SXR) Green as Probe)) was 2000 nM.
For the compound `C[C@@H]1C(=O)O[C@H]2C[C@@]34[C@H]5C[C@@H](C(C)(C)C)[C@]36[C@@H](OC(=O)[C@@H]6O)O[C@@]4(C(=O)O5)[C@]21O` [Ginkgolide A, ginkgolide A], the “Activity (Fluormone PXR (SXR) Green as Probe), % at single concentration” value at hPXR [3] is recorded as 54% (1000 μM)^g.
Turning to `CC1C(=O)OC2C(O)C34C5CC(C(C)(C)C)C36C(OC(=O)C6O)OC4(C(=O)O5)C12O` (stereo not drawn) [Ginkgolide B, ginkgolide B], the “Activity (Fluormone PXR (SXR) Green as Probe), % at single concentration” value on hPXR [3] is reported as 48% (1000 μM)^g.

A word on the Kd: it is the concentration at which binding is half-saturated. High values mean lower affinity, low ones higher affinity. A word on the Ki: it is the equilibrium dissociation constant of an inhibitor or competing ligand from its target. Broadly, the IC50 is the concentration that inhibits the measured activity by half.

These data come from patent publication US20160033531A1, “METHOD AND COMPOSITIONS FOR DETECTING BINDING TO THE PREGNANE X RECEPTOR” (ST. JUDE CHILDREN'S RESEARCH HOSPITAL, priority 2013, published 2016).
